Test results as given in publication PMC7081907, “Discovery and Selection of Hepatitis B Virus-Derived T Cell Epitopes for Global Immunotherapy Based on Viral Indispensability, Conservation, and HLA-Binding Strength” (Journal of Virology, 2020).
Marks after values point to notes of the source that are not given here.

Key:
HBV-specific T cells = conditions: cumulative over papers, responder = positive multimer staining and/or IFN-γ ELISPOT, ref Hepitopes database [24], [49], cited from earlier work; for % responders (no. of responders/total no. of subjects tested), HCC: HBV-positive HCC patients; for % responders (no. of responders/total no. of subjects tested), Chronic: chronic HBV patients; for % responders (no. of responders/total no. of subjects tested), Acute: patients with acute/resolved HBV infection, asterisk = significantly more prevalent than in other groups;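 as to all read-outs here: responder rates refer to previously reported epitopes of HBx or polymerase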
HLA-A*24:02 = HLA-A*24:02 (Homo sapiens, UniProt P04439, D101N/D140Y/D185E/E176V/E190D/F33S/G103R/G107R/I119L/I121M/I306V/K335N/L105A/L180Q/L300P/N151K/N90K/Q86E/Q94H/R106L/R138H/R89G/T104I/T345S/V100E/W191G/Y123F); assay: UV-based in vitro HLA binding assay (peptide exchange + HLA-I ELISA), HLA-A*24:02; conditions: conditional pHLA 0.53 μM, peptide 50 μM, 30 min 366-nm UV, absorbance 414 nm normalized to high-affinity positive control (100%), two exchanges, each in duplicate
Description: (§1) Next, the HLA-binding capacity of selected peptides was tested in a UV-based in vitro binding assay. […] HLA-A*11:01 and HLA-A*03:01 were both tested as members of the HLA-A*03 supertype since many HBV-infected patients are Asian and HLA-A*11:01 is more prevalent in this population than the supertype representative HLA-A*03:01, which is more prevalent in Caucasians ([72]). We identified 13 binders for HBx and 33 for Pol across HLA supertypes, including novel binders that have been described previously in the context of another HLA type (Fig. 5A to G, dotted underlining, and Fig. 5H). […] In contrast, binding of infrequently reported epitopes (Fig. 5, solid underlining) could not always be verified.
(§2) Synthetic peptides (Peptide 2.0 Inc.) of selected potential HLA binders were used in an in vitro binding assay as described previously ([96]). […] Subsequently, the peptide exchange efficiency was analyzed using an HLA-I enzyme-linked immunosorbent assay (ELISA), which detects beta-2-microglobulin of peptide-stabilized HLA-I complexes in an exchange reaction mixture. […] The reaction was stopped after 8 min (incubation at room temperature) by the addition of a 2% (wt/vol) oxalic acid dihydrate stop solution (Sanquin Reagents BV) and read in a Thermo Electron Multiskan Ascent ELISA reader at 414 nm. […] Every exchange mixture was measured in duplicate by the HLA-I ELISA. […]

cytotoxic T cells = conditions: HLA-A*24:02 peptide, ref Yamamiya et al. [89]; cited from earlier work
Description: We identified a few novel epitopes for which the sequence overlaps that of an epitope that has previously been described for the HLA type tested. […] It would now be interesting to investigate how responses to these epitope variants relate in CHB patients, especially since p755-764 has been the only HBV-derived epitope described for supertype HLA-A*24 until very recently. For HLA-A*24:02, we studied the binding cap ...

[1] = test system: PBMCs from blood donors who had previously resolved an HBV infection; assay: Immunogenicity: IFN-γ ELISA on peptide-expanded PBMCs of HBV resolvers; type: cell-based, human; conditions: for number of responsive donors as a fraction of the total number of subjects tested: PBMCs expanded 14 days, restimulated 48 h, 10 μg/ml/peptide, response = mean OD ≥ mean + 2 SD of DMSO; for IFN-γ production in response to peptide, in words: expanded PBMCs from 9 HBV resolvers, HLA-matched, single-peptide restimulation 48 h, 10 μg/ml, DMSO-subtracted
Description: Finally, the immunogenicity of all HBx- and Pol-derived binders was assessed to determine which binders would be most interesting for the development of an antigen-based HBV-targeting immunotherapy.
Briefly, PBMCs were isolated by Ficoll (GE Healthcare) density centrifugation from buffy coats of 9 donors who had previously resolved HBV infection. Buffy coats were provided by the local blood bank with corresponding 2-digit HLA types. Four-digit HLA typing was performed for 7 out of 9 donors using the global screening array (GSA) (Illumina through the Human Genomics Facility, Erasmus MC Rotterdam) (Table 3). All donors gave written informed consent. PBMCs were cultured in Iscove’s modified Dulbecco’s medium (IMDM) (Lonza) containing 2% human serum (Sanquin) and 50 IU/ml human interleukin-2 (hIL-2) (Miltenyi) in the presence of peptide pools of a maximum of 5 peptides of interest based on HLA matching at 10 μg/ml/peptide. After 14 days, 200,000 cells were restimulated with the peptides of interest for 48 h at 37°C with 10 μg/ml/peptide in triplicate. Supernatants from restimulations were subsequently used in a human IFN-γ (hIFN-γ) ELISA (BioLegend) according to the manufacturer’s instructions. Plates were read at a 450-nm wavelength using an Infinite 200Pro ELISA reader. hIFN-γ levels were calculated from background-subtracted optical density (OD) values (means from triplicates) using a supernatant derived from a previously successful restimulation with c18-27 that was quantified in a separate ELISA using the hIFN-γ standard provided by the manufacturer. HLA binders with a mean OD value of at least the mean plus 2 times the standard deviation (SD) of the dimethyl sulfoxide (DMSO) control were quantified.

HLA-B*08:01 = HLA-B*08:01 (Homo sapiens, UniProt P01889, A93T/A95T/D138N/E176V/E187T/K202T/Q94N/R180D/S35A/V36M/Y33D/Y91F); assay: UV-based in vitro HLA binding assay (peptide exchange + HLA-I ELISA), HLA-B*08:01; conditions: conditional pHLA 0.53 μM, peptide 50 μM, 30 min 366-nm UV, absorbance 414 nm normalized to high-affinity positive control (100%), two exchanges, each in duplicate
Description: Nonbound material was removed by washing. […] Every peptide was independently exchanged twice.

HLA-B*07:02 = HLA-B*07:02 (Homo sapiens, UniProt P01889); assay: UV-based in vitro HLA binding assay (peptide exchange + HLA-I ELISA), HLA-B*07:02; conditions: conditional pHLA 0.53 μM, peptide 50 μM, 30 min 366-nm UV, absorbance 414 nm normalized to high-affinity positive control (100%), two exchanges, each in duplicate
Description: as §1, §2

Row | Sequence | % responders (no. of responders/total no. of subjects tested), HCC (HBV-specific T cells) | % responders (no. of responders/total no. of subjects tested), Chronic (HBV-specific T cells) | % responders (no. of responders/total no. of subjects tested), Acute (HBV-specific T cells) | further results
1 | ALMPLYACI [p653-661] | 0 (0/10) % | 0 (0/9) % | 20 (4/20) % | –
2 | ASFCGSPYSW [p166-175] | – | – | – | HLA binding class (binder/nonbinder), HLA-A*24:02 (HLA-A*24:02): binder (binders (>25% of the positive control))
3 | CLFKDWEEL | 50 (3/6) % | – | – | –
4 | FLLSLGIHL [p573-581] | 0 (0/10) % | 13 (9/70) % | 59 (50/85)* % | –
5 | GLSRYVARL [p453-461] | 0 (0/10) % | 6 (5/87) % | 50 (39/78)* % | –
6 | GYPALMPLY [p650-658] | – | – | – | responding HBV resolvers (cytotoxic T cells): none of the 3; number of responsive donors as a fraction of the total number of subjects tested ([1]; HLA-A*24:02 donors): 1 of the 2
7 | HLSLRGLPV [x52-60] | 19 (3/16) % | 0 (0/20) % | – | HLA binding class (binder/nonbinder), HLA-B*08:01 (HLA-B*08:01): binder (binders (>25% of the positive control))
8 | HPAAMPHLL [p440-448] | – | – | 0 (0/12) % | –
9 | HTLWKAGILYK [p149-159] | – | – | 5 (1/22) % | –
10 | ILRGTSFVYV | – | 0 (0/9) % | 43 (3/7) % | –
11 | KLVCSPAPC | 50 (3/6) % | – | – | –
12 | KVGNFTGLY [p55-63] | – | – | 9 (2/22) % | –
13 | KYTSFPWLL [p756-764] | – | 48 (10/21) % | 93 (13/14)* % | –
14 | LVVDFSQFSR [p388-397] | – | – | 5 (1/22) % | –
15 | NLSWLSLDV [p422-430] | 0 (0/10) % | – | – | –
16 | NVSIPWTHK [p47-55] | – | – | 5 (1/21) % | –
17 | QAFTFSPTYK [p665-674] | – | – | 14 (3/21) % | –
18 | QLDPARDVL | 0 (0/10) % | 0 (0/20) % | 25 (1/4) % | –
19 | RKYTSFPWLL [p755-764] | – | – | – | IFN-γ production in response to peptide, in words [1]: superior IFN-γ production compared to the known epitope p756-764 in both donors tested
20 | SAICSVVRR | – | – | 9 (2/22) % | –
21 | SLYADSPSV [p814-822] | – | 0 (0/22) % | 25 (11/44)* % | –
22 | TLWKAGILYK [p150-159] | – | – | 18 (5/28) % | –
23 | TPARVTGGVF [p365-374] | – | – | 17 (2/12) % | number of responsive donors as a fraction of the total number of subjects tested ([1]; HLA-B*07:02 donors): 4/4; HLA binding class (binder/nonbinder), HLA-B*07:02 (HLA-B*07:02): binder (binders (>25% of the positive control))
24 | VLGGCRHKL [x133-141] | 0 (0/10) % | 0 (0/20) % | – | –
25 | VLHKRTLGL [x92-100] | 19 (3/16) % | 0 (0/20) % | – | HLA binding class (binder/nonbinder), HLA-B*08:01 (HLA-B*08:01): binder (binders (>25% of the positive control))
26 | YLHTLWKAGI [p147-156] | 0 (0/10) % | – | – | –
27 | YMDDVVLGA [p549-557] | 0 (0/10) % | 0 (0/21) % | 15 (2/13) % | IFN-γ production in response to peptide, in words [1]: IFN-γ production was detected
28 | YPALMPLYA [p651-659] | – | – | 0 (0/12) % | –
